Tests used:
5-HT1A receptor = target: T1, 5-HT1A receptor (Mus musculus, UniProt Q64264); experiment: Forced swim test, alone and after 5-HT1A receptor antagonist NAN-190; type: in vivo, Swiss albino mice; details: NAN-190 1 mg/kg p.o. alone
T1 construct: Male Swiss albino mice weighing 25-30 g were treated with antagonist of 5-HT1A receptor (NAN-190); from tissue; host or cells: whole living animal (male Swiss albino mice)
T1 sequence (Q64264 1-421): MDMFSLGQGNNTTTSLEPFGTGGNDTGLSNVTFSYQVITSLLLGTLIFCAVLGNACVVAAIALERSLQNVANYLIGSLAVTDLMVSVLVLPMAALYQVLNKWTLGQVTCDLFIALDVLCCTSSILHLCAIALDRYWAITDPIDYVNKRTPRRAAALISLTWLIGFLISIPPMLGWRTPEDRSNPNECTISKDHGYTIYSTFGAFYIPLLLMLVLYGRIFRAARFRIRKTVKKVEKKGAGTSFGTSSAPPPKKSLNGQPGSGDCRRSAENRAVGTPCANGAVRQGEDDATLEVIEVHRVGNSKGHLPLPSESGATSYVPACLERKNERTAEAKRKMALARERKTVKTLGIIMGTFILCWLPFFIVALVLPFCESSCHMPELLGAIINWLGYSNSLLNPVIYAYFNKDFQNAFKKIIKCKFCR
Method: The activity of the test composition was evaluated by first blocking the 5-HT1A receptor with an antagonist followed by treatment with the test composition. The activity was measured in terms of immobility time of the test animals subjected to forced swim test.
Procedure: Male Swiss albino mice weighing 25-30 g were treated with antagonist of 5-HT1A receptor (NAN-190) at 1 mg/kg (p.o.) followed by administration of test composition at either 10 mg/kg (p.o.) or 30 mg/kg (p.o.). One hour after treatment, the animals were subjected to forced swim test and the immobility time was measured. A cut-off time of 360 sec was used.

[1] = system: Nitroglycerine induced hyperalgesia in rats; experiment: Tail flick response latency in nitroglycerine induced hyperalgesia, oral treatment; test composition 41% asiaticoside and 36% madecassoside; type: in vivo, Wistar rats; details: 20 mg/kg p.o.

Structure (SMILES)	Immobility Time (5-HT1A receptor) [s]	% Reduction in Immobility Time (5-HT1A receptor; vs Normal Control) [%]	Response latency in tail flick ([1]; 0 min after treatment, 20 seconds cut off)	Response latency in tail flick ([1]; 30 min after treatment)	Response latency in tail flick ([1]; 60 min after treatment)	Response latency in tail flick ([1]; 90 min after treatment)	Response latency in tail flick ([1]; 120 min after treatment)	Response latency in tail flick ([1]; 180 min after treatment)	Response latency in tail flick ([1]; 240 min after treatment)
COc1ccccc1N1CCN(CCCCN2C(=O)c3ccccc3C2=O)CC1 [NAN-190]	232.0 ± 1.63	−8.26	–	–	–	–	–	–	–
CC(C)=CCN1CCC2(C)c3cc(O)ccc3CC1C2C (stereo not drawn) [Pentazocine]	–	–	8.42 ± 0.22	15.27 ± 0.26	15.23 ± 0.17	15.78 ± 0.24	15.50 ± 0.48	15.18 ± 0.45	15.03 ± 0.28

Source: patent publication US9254269B2, “Method of managing hypercortisolemia, headache disorders, neuropathic pain and related disorders” (Indus Biotech Private Limited, priority 2011, dated 2016)
